Tests used:
Format in all cases: cell-based, human
[1] = test system: amniotic fluid-derived cell line; assay: 6 hour trichostatin A treatment, gene expression by RT-PCR (Example 10); conditions: for Gata1 gene expression / HNF-3 beta gene expression / Insulin gene expression / Pdx-1 gene expression / sox17 gene expression: 1.25 μM for 6 h then removed
Protocol: (§1) Amniotic fluid derived cells or pancreas-derived cells were seeded into 24-well tissue culture plates at a density of 5000/cm^2 and cultured in AMNIOMAX (Invitrogen) or DMEM with 10% FBS respectively under standard cell culture conditions until confluency was reached. Upon reaching confluency, amniotic fluid derived cells were treated with 1.25 μM trichostatin A and pancreas-derived stromal cells were treated with 5.0 μM trichostatin A. The media was changed 6 hours following the addition of trichostatin A and cultures were maintained for the remainder of the experiment. Several cell lines obtained from amniotic fluid (see Example 14) and pancreas (see Example 13) were tested.
(§2) RNA samples were obtained at the time the trichostatin A was removed and 24 hours from the start of the experiment. The culture media was removed and cells were washed with PBS then collected in RLT Lysis Buffer with β-mercaptoethanol (Qiagen). RNA was purified using the RNeasy Mini Kit (Qiagen) and RNA quantity and quality was determined using a spectrophotometer. cDNA was made using the iScript cDNA synthesis kit (BioRad). Human pancreas cDNA was included as a control. Results were normalized against GAPDH expression levels.
(§3) The expression levels of Sox17, HNF-3 beta, Pdx-1, Insulin, and Gata-1 were analyzed in amniotic-derived cells while the expression levels of glucagon, insulin, PDX-1 and HNF-3 beta were analyzed in pancreas-derived cells. 20 ng of cDNA was used in each RT-PCR reaction, which was performed on the Applied Biosystems 7500, according to the methods described in Example 15. Data was analyzed using the accompanying software.
(§4) Real-time PCR amplifcation and quantitative analysis. Unless otherwise stated, all reagents were purchased from Applied Biosystems. Real-time PCR reactions were performed using the ABI PRISM™ 7500 Sequence Detection System. TAQMAN™ FAST UNIVERSAL PCR MASTER MIX™ (ABI, CA) was used with 20 ng of reverse transcribed RNA in a total reaction volume of 20 μl. Each cDNA sample was run in duplicate to allow correction of pipetting errors. Primers and FAM-labeled TAQMAN™ probes were used at concentrations of 200 nM. The level of expression for each target gene was normalized using the pre-developed Applied Biosystem's human glyceraldehyde-3-phosphate dehydrogenase (GAPDH) endogenous control kit. Primers and probes were designed using either ABI PRISM PRIMER EXPRESS™ software or a pre-developed ABI gene analysis kit. For each gene, either one of the primers or the probe were designed to be exon-boundary spanning. This eliminated the possibility of the primers/probe binding to any genomic DNA present. The primer and probe sets are listed as follows: Pdx-1 (Hs00426216), Insulin (Hs00355773), glucagon (Hs00174967), and FoxA2 (HNF 3-beta) (Hs00232764). The remaining primers were designed using the PRIMERS program (ABI, CA). After an initial 95° C. incubation for 20 sec, samples were cycled 40 times in two stages: a denaturation step at 95° C. for 3 sec, followed by an annealing/extension step at 60° C. for 30 sec.
(§5) For each primer/probe set, a cycle time value was determined as the cycle number at which the fluorescence intensity of the PCR reaction reached a specific value in the middle of the exponential region of amplification. An increase in expression of a gene corresponded to a decrease in the number of cycles required for the fluorescence intensity to reach this value.

[2] = test system: early passage (P5) pancreatic-derived stromal cell line; assay: as above; conditions: for HNF-3 beta gene expression / Insulin gene expression / Pdx-1 gene expression / glucagon gene expression: 5 μM for 6 h then removed
Protocol: as §1, §2, §3, §4, §5

[3] = test system: second amniotic fluid-derived cell line; assay: as above; conditions: for Gata1 gene expression / HNF-3 beta gene expression / Insulin gene expression / Pdx-1 gene expression / sox17 gene expression: 1.25 μM for 6 h then removed
Protocol: as §1, §2, §3, §4, §5

[4] = test system: second amniotic fluid-derived cell line; assay: Two high dose trichostatin A treatments (first 48 h), gene expression by RT-PCR (Example 9); conditions: 1.25 μM, following first treatment;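 also: lower cycle number means higher gene expression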
[5] = 5.0 μM, following 6 h treatment

For `CC(/C=C/C(=O)NO)=C\[C@@H](C)C(=O)c1ccc(N(C)C)cc1` [trichostatin A], the Gata1 gene expression ([1]; 6 hrs) was “nd (not detectable at >40 cycles by RT-PCR)”, the “HNF-3 beta gene expression” value ([1]; 6 hrs) was “+++ (detectable at less than 35 cycles by RT-PCR with SE less than 0.9)” and the Insulin gene expression ([1]; 6 hrs) was “nd (not detectable at >40 cycles by RT-PCR)”. The Pdx-1 gene expression ([1]; 6 hrs) was “+ (detectable between 35 and 40 cycles by RT-PCR)”, the sox17 gene expression ([1]; 6 hrs) was “+++ (detectable at less than 35 cycles by RT-PCR with SE less than 0.9)” and the Gata1 gene expression ([1]; 24 hrs) was “nd (not detectable at >40 cycles by RT-PCR)”. For the same compound, the “HNF-3 beta gene expression” value ([1]; 24 hrs) was “+++ (detectable at less than 35 cycles by RT-PCR with SE less than 0.9)”, the Insulin gene expression ([1]; 24 hrs) was “nd (not detectable at >40 cycles by RT-PCR)” and the Pdx-1 gene expression ([1]; 24 hrs) was “nd (not detectable at >40 cycles by RT-PCR)”. The sox17 gene expression ([1]; 24 hrs) was “+++ (detectable at less than 35 cycles by RT-PCR with SE less than 0.9)”, the “Pdx-1 RT-PCR detection cycle” value ([1]; 1.25 μM, after treatment (37 before treatment)) was 35 cycles and the “HNF-3 beta RT-PCR detection cycle” value ([1]; 1.25 μM, following 6 h treatment) was 32 cycles. The “HNF-3 beta RT-PCR detection cycle” value ([1]; 1.25 μM, following the wash) was 35 cycles, the “HNF-3 beta gene expression” value ([2]; 6 hrs) was “+++ (detectable at less than 35 cycles by RT-PCR with SE less than 0.9)” and the Insulin gene expression ([2]; 6 hrs) was “nd (not detectable at >40 cycles by RT-PCR)”. The Pdx-1 gene expression ([2]; 6 hrs) was “+ (detectable between 35 and 40 cycles by RT-PCR)”, the glucagon gene expression ([2]; 6 hrs) was “+ (detectable between 35 and 40 cycles by RT-PCR)” and the “HNF-3 beta gene expression” value ([2]; 24 hrs) was “nd (not detectable at >40 cycles by RT-PCR)”. The Insulin gene expression ([2]; 24 hrs) was “+++ (detectable at less than 35 cycles by RT-PCR with SE less than 0.9)”, the Pdx-1 gene expression ([2]; 24 hrs) was “nd (not detectable at >40 cycles by RT-PCR)” and the glucagon gene expression ([2]; 24 hrs) was “+ (detectable between 35 and 40 cycles by RT-PCR)”. The “Insulin RT-PCR detection cycle” value ([2]; 5.0 μM, after trichostatin A was removed from the media) was 32 cycles, the “HNF-3 beta RT-PCR detection cycle” value [2, 5] was 35 cycles and the “glucagon RT-PCR detection cycle” value [2, 5] was 37 cycles. For the same compound, the “Pdx-1 RT-PCR detection cycle” value ([2]; 5.0 μM, following treatment (38 before treatment)) was 35 cycles, the Gata1 gene expression ([3]; 6 hrs) was “nd (not detectable at >40 cycles by RT-PCR)” and the “HNF-3 beta gene expression” value ([3]; 6 hrs) was “+++ (detectable at less than 35 cycles by RT-PCR with SE less than 0.9)”. The Insulin gene expression ([3]; 6 hrs) was “nd (not detectable at >40 cycles by RT-PCR)”, the Pdx-1 gene expression ([3]; 6 hrs) was “+++ (detectable at less than 35 cycles by RT-PCR with SE less than 0.9)” and the sox17 gene expression ([3]; 6 hrs) was “+++ (detectable at less than 35 cycles by RT-PCR with SE less than 0.9)”. The Gata1 gene expression ([3]; 24 hrs) was “nd (not detectable at >40 cycles by RT-PCR)”, the “HNF-3 beta gene expression” value ([3]; 24 hrs) was “+ (detectable between 35 and 40 cycles by RT-PCR)” and the Insulin gene expression ([3]; 24 hrs) was “nd (not detectable at >40 cycles by RT-PCR)”. The Pdx-1 gene expression ([3]; 24 hrs) was “nd (not detectable at >40 cycles by RT-PCR)”, the sox17 gene expression ([3]; 24 hrs) was “+++ (detectable at less than 35 cycles by RT-PCR with SE less than 0.9)” and the “HNF-3 beta RT-PCR detection cycle” value ([3]; 1.25 μM, 6 hours of treatment) was 31 cycles. The “Pdx-1 RT-PCR detection cycle” value ([3]; 1.25 μM, 6 hours of treatment) was 35 cycles, the “HNF-3 beta RT-PCR detection cycle” value ([3]; 1.25 μM, following removal) was 35 cycles and the “Gata-1 RT-PCR detection cycle” value [4] was 38 cycles.

Reference: US20080063628A1, “METHODS TO PROMOTE CELL DIFFERENTIATION” (priority 2006, published 2008)
